Test results published in patent US20260335329A1, “PROTEIN PHOSPHATASE AGONIST AND USE” (priority 2022, published 2026).
Where “and” joins values, the source holds several entries; their conditions need not be identical. Equal entries are not always repeated. Structures can show the parent of a compound that is named as a salt.

Tests used:
PC12 cells = experiment: Survival rate of PC12 cells in the okadaic acid-induced injury model (CCK-8); format: cell-based
Experimental: PC12 cells were detached and counted. A cell suspension was prepared at 8.0×10^4 cells/mL. 100 μL of the cell suspension was added to each well of a 96-well cell culture plate. The 96-well cell culture plate was placed in an incubator at 37° C. in 5% CO2 and cultured for 24 h. In an experimental group, the PC12 cells were pre-incubated for 2 h in a culture medium containing a test compound (the concentrations of the compound were 0.1 μmol/L, 0.5 μmol/L, 1 μmol/L, 5 μmol/L, and 10 μmol/L respectively, and the concentrations of the compound were set according to the concentrations in Table 5, Table 6, Table 7, and Table 8). […] In addition, a negative control group (no test compound or okadaic acid added) and a model group (only okadaic acid added) were set. The 96-well cell culture plate was placed in an incubator at 37° C. in 5% CO2 and cultured for 24 h. The cells in the 96-well cell culture plate were stained with 10 μL of CCK-8 in each well, and then cultured in the incubator for 1 h to 2 h. The 96-well cell culture plate was shaken gently for 10 min to mix uniformly and remove bubbles from the 96-well cell culture plate. The OD value of each well at 2=450 nm was read by using a microplate reader. A survival rate of cells was calculated.
Calculation formula for the cell survival rate: […]
The effect of each compound on the survival rate of PC12 cells in the okadaic acid- and Aβ1-42-induced injury models was determined by the CCK-8 cell proliferation assay.

PP2A = experiment: Okadaic acid-induced PP2A protein expression level in PC12 cells (Western Blot); format: cell-based; conditions: for PP2A (Western Blot signal) / PP2A(%): 24 h
Experimental: PC12 cells were inoculated into a T25 culture flask. After the cells were attached to the wall, compound 1 and compound 2 were added, and then the cells were incubated for 2 h. 40 nmol/L okadaic acid was then added. Then, the cells were incubated for 24 h. The protein was extracted. Based on the Western Blot assay, the PP2A protein expression level in PC12 cells was detected through SDS-PAGE and transfer, immunoblotting, color development, and G: BOX chemiXR5 imaging.

[1] = test system: p-tauSer396 in SH-SY5Y cells; experiment: Okadaic acid-induced phosphorylation of tau protein (p-tauSer396) in SH-SY5Y cells (Western Blot); format: cell-based, human; conditions: okadaic acid 40 nmol/L alone (model group), 24 h, SEM, n = 3
Experimental: SH-SY5Y cells were cultured in vitro for 24 h in culture media containing different concentrations of compound 2. Then, the cells were treated with 40 nmol/L okadaic acid for 24 h. The p-tauSer396 level of the SH-SY5Y cells was measured by the Western Blot assay.

[2] = Rattus norvegicus, PC-12, 24 h, compound 5 μmol/L, 2 h, then okadaic acid 50 nmol/L, 24 h, PC12 cells
[3] = compound 5 μmol/L, 2 h, then okadaic acid 50 nmol/L, 24 h, PC12 cells
[4] = compound 1 μmol/L, 2 h, then okadaic acid 40 nmol/L
[5] = compound 5 μmol/L, 2 h, then okadaic acid 40 nmol/L
[6] = compound 10 μmol/L, 2 h, then okadaic acid 40 nmol/L

Compound	viability at 5 µM (PC12 cells; [2]) [%]	OD value at 450 nm, Mean ± SD (PC12 cells; [3])	further results
CCOCc1cc2oc(=N)c3ccccc3n2n1 [Compound 3, 2-(ethoxymethyl)-5H-benzo[d]pyrazolo[5,1-b][1,3]oxazin-5-imine]	66	0.858 ± 0.009	–
CCCOCc1cc2oc(=N)c3ccccc3n2n1 [Compound 4, 2-(propoxymethyl)-5H-benzo[d]pyrazolo[5,1-b][1,3]oxazin-5-imine]	65.9	0.856 ± 0.012	–
CCc1ccc2c(=N)oc3cc(COC)nn3c2c1 [Compound 9, 2-(methoxymethyl)-8-ethyl-5H-benzo[d]pyrazolo[5,1-b][1,3]oxazin-5-imine]	65.6	0.852 ± 0.010	–
N=c1oc2cc(CO)nn2c2ccccc12 [Compound 1, (5-imino-5H-benzo[d]pyrazolo[5,1-b][1,3]oxazin-2-yl) methanol]	70.5	–	PP2A (Western Blot signal) (PP2A; [4]): 437.09; PP2A(%) (PP2A; [4]): 14%; PP2A (Western Blot signal) (PP2A; [5]): 625.9; PP2A(%) (PP2A; [5]): 17%; PP2A (Western Blot signal) (PP2A; [6]): 953.23; PP2A(%) (PP2A; [6]): 22%; effect on the PP2A expression level (PP2A; compound 1, 5 and 10 μmol/L, compared with okadaic acid only): can significantly increase the PP2A expression level dose-dependently; viability at 0.1 µM (PC12 cells; Rattus norvegicus, PC-12, 24 h, compound 0.1 μmol/L, 2 h, then okadaic acid 50 nmol/L, 24 h, PC12 cells): 58.2%; viability at 0.5 µM (PC12 cells; Rattus norvegicus, PC-12, 24 h, compound 0.5 μmol/L, 2 h, then okadaic acid 50 nmol/L, 24 h, PC12 cells): 60.2%; viability at 1 µM (PC12 cells; Rattus norvegicus, PC-12, 24 h, compound 1 μmol/L, 2 h, then okadaic acid 50 nmol/L, 24 h, PC12 cells): 63.1%; viability at 10 µM (PC12 cells; Rattus norvegicus, PC-12, 24 h, compound 10 μmol/L, 2 h, then okadaic acid 50 nmol/L, 24 h, PC12 cells): 76.6%; survival rate compared with okadaic acid model group (PC12 cells; compound 0.1 μmol/L): statistical difference (P<0.05); OD value at 450 nm, Mean ± SD (PC12 cells; compound 0.1 μmol/L, 2 h, then okadaic acid 50 nmol/L, 24 h, PC12 cells): 1.337 ± 0.008; OD value at 450 nm, Mean ± SD (PC12 cells; compound 0.5 μmol/L, 2 h, then okadaic acid 50 nmol/L, 24 h, PC12 cells): 1.382 ± 0.013; OD value at 450 nm, Mean ± SD (PC12 cells; compound 1 μmol/L, 2 h, then okadaic acid 50 nmol/L, 24 h, PC12 cells): 1.449 ± 0.013; Survival rate % (PC12 cells; compound 5 μmol/L, 2 h, then okadaic acid 50 nmol/L, 24 h, PC12 cells, 1440 min, 5 µM): 71.70%; OD value at 450 nm, Mean ± SD (PC12 cells; compound 10 μmol/L, 2 h, then okadaic acid 50 nmol/L, 24 h, PC12 cells): 1.76 ± 0.032; survival rate compared with okadaic acid model group (PC12 cells; compound 0.5, 1, 5 and 10 μmol/L): significant statistical differences (P<0.01)
COCc1cc2oc(=N)c3cc(Cl)ccc3n2n1 [Compound 12, 2-(methoxymethyl)-7-chloro-5H-benzo[d]pyrazolo[5,1-b][1,3]oxazin-5-imine]	66.7	0.866 ± 0.003	–
CCCOCc1cc2oc(=N)c3cc(F)ccc3n2n1 [Compound 16, 2-(propoxymethyl)-7-fluoro-5H-benzo[d]pyrazolo[5,1-b][1,3]oxazin-5-imine]	66.9	0.869 ± 0.005	–
N=c1oc2cc(COC=O)nn2c2ccccc12 [Compound 5, (5-imino-5H-benzo[d]pyrazolo[5,1-b][1,3]oxazin-2-yl)methyl formate]	65.6	0.852 ± 0.004	–
CSCc1cc2oc(=N)c3ccccc3n2n1 [Compound 7, 2-((methylthio)methyl)-5H-benzo[d]pyrazolo[5,1-b][1,3]oxazin-5-imine]	70.8	0.919 ± 0.008	–
COCc1cc2oc(=N)c3ccc(C)cc3n2n1 [Compound 8, 2-(methoxymethyl)-8-methyl-5H-benzo[d]pyrazolo[5,1-b][1,3]oxazin-5-imine]	67.5	0.877 ± 0.009	–
COCCCc1cc2oc(=N)c3ccc(F)cc3n2n1 [Compound 18, 2-(methoxypropyl)-8-fluoro-5H-benzo[d]pyrazolo[5,1-b][1,3]oxazin-5-imine]	65.5	0.851 ± 0.007	–
COCCc1cc2oc(=N)c3ccc(F)cc3n2n1 [Compound 17, 2-(methoxyethyl)-8-fluoro-5H-benzo[d]pyrazolo[5,1-b][1,3]oxazin-5-imine]	67.9	0.882 ± 0.005	–
CCOCc1cc2oc(=N)c3cc(F)ccc3n2n1 [Compound 15, 2-(ethoxymethyl)-7-fluoro-5H-benzo[d]pyrazolo[5,1-b][1,3]oxazin-5-imine]	67.1	0.872 ± 0.012	–
COCc1cc2oc(=N)c3cc(OC)ccc3n2n1 [Compound 13, 2-(methoxymethyl)-7-methoxy-5H-benzo[d]pyrazolo[5,1-b][1,3]oxazin-5-imine]	67.7	0.879 ± 0.009	–
COCc1cc2oc(=N)c3cc(F)ccc3n2n1 [Compound 11, 2-(methoxymethyl)-7-fluoro-5H-benzo[d]pyrazolo[5,1-b][1,3]oxazin-5-imine]	66	0.857 ± 0.007	–
COCc1cc2oc(=N)c3ccc(F)cc3n2n1 [Compound 10, 2-(methoxymethyl)-8-fluoro-5H-benzo[d]pyrazolo[5,1-b][1,3]oxazin-5-imine]	64.8	0.842 ± 0.008	–
C=C1[C@@H](O)[C@@H]2O[C@]3(CC[C@H](/C=C/[C@@H](C)[C@@H]4CC(C)=C[C@@]5(O[C@H](C[C@@](C)(O)C(=O)O)CC[C@H]5O)O4)O3)CC[C@H]2O[C@@H]1[C@@H](O)C[C@H](C)[C@H]1O[C@@]2(CCCCO2)CC[C@H]1C [Okadaic Acid, okadaic acid, reference compound]	–	–	p-tauSer396 level (%) [1]: 0.855 ± 0.023%; PP2A (Western Blot signal) (PP2A; okadaic acid 40 nmol/L alone): 339.39; PP2A(%) (PP2A; okadaic acid 40 nmol/L alone): 8%; OD value at 450 nm, Mean ± SD (PC12 cells; okadaic acid 50 nmol/L alone (model group), 24 h, PC12 cells): 0.643 ± 0.014 and 1.225 ± 0.018 and 0.669 ± 0.025
CC(=O)OCc1cc2oc(=N)c3ccccc3n2n1 [Compound 6, (5-imino-5H-benzo[d]pyrazolo[5,1-b][1,3]oxazin-2-yl)methyl acetate]	68.4	0.889 ± 0.007	–
CCOc1ccc2c(c1)c(=N)oc1cc(COC)nn12 [Compound 14, 2-(methoxymethyl)-7-ethoxy-5H-benzo[d]pyrazolo[5,1-b][1,3]oxazin-5-imine]	66.7	0.866 ± 0.011	–
